According to patent publication US10828305B2 (SHANGHAI PHARMACEUTICALS HOLDING CO., LTD., priority 2016, dated 2020):
Read-outs that look alike come from different tables or passages of the source.

What was measured:
N87 = assay: Proliferation inhibition assay in vitro, N87 (CellTiter-Glo); assay type: cell-based; details: Homo sapiens; 72 hours; read-out: IC50(nM) cell N87
Outline: (§1)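 Cells were seeded at 8.8×10^4 cells/mL for BT-474 or 6.6×10^4 cells/mL for N87 and grown overnight. Compound was added at 9 concentrations in duplicate for 72 h at 37 °C, 5% CO2. Viability was measured by CellTiter-Glo.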

BT-474 = assay: Proliferation inhibition assay in vitro, BT-474 (CellTiter-Glo); assay type: cell-based; details: Homo sapiens, 72 hours, read-out: IC50(nM) cell BT-474
Outline: as §1

ErbB2 kinase = ErbB2 kinase (Homo sapiens, UniProt P04626); assay: Enzymatic experiment on ErbB2 (HTRF kinEASE-TK); assay type: biochemical
Chain of ErbB2 kinase (P04626 23-1255): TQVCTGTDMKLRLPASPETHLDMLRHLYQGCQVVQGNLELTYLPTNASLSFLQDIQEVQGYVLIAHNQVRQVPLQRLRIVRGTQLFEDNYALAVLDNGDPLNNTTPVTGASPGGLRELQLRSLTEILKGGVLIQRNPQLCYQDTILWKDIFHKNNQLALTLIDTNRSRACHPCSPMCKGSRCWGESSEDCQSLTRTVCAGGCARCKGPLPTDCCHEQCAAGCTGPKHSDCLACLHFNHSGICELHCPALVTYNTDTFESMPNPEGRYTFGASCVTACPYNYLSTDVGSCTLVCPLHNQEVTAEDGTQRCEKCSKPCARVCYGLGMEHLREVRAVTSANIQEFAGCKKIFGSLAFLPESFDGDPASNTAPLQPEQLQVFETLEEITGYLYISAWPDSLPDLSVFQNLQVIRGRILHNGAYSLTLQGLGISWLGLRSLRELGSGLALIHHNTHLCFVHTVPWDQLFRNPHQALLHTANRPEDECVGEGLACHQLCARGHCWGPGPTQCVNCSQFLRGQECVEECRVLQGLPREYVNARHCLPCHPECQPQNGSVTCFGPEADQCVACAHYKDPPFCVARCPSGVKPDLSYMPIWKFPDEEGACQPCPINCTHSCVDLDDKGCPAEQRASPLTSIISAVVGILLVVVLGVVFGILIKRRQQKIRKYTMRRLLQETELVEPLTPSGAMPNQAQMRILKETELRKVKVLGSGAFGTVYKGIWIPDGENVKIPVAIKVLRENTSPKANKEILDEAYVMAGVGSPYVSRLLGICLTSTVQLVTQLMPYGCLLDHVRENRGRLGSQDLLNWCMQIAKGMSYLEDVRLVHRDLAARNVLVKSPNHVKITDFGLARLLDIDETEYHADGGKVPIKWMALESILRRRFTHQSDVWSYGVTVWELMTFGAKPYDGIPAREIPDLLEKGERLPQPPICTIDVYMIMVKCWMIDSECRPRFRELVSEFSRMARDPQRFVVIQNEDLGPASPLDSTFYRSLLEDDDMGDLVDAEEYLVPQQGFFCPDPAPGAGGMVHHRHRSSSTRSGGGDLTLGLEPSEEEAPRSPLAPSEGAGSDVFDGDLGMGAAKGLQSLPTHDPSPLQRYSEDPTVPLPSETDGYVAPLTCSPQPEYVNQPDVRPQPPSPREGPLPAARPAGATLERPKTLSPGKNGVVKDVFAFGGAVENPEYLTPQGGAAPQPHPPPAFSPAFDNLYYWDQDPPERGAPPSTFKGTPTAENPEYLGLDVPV
Outline: (§2)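 HTRF kinEASE-TK with biotinylated TK substrate in HEPES pH 7.0 buffer containing MnCl2, MgCl2 and DTT; ErbB2 at 0.06 ng/μl with 4 μM ATP, EGFR at 0.06 units/μl with 1.65 μM ATP, 30 min at room temperature after 5 min enzyme/substrate–compound preincubation. Ten-point 3-fold dilutions; Eu antibody/SA-XL665 detection, 665/620 ratio.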

EGFR kinase = EGFR kinase (Homo sapiens, UniProt P00533); assay: Enzymatic experiment on EGFR (HTRF kinEASE-TK); assay type: biochemical
Chain of EGFR kinase (P00533 25-1210): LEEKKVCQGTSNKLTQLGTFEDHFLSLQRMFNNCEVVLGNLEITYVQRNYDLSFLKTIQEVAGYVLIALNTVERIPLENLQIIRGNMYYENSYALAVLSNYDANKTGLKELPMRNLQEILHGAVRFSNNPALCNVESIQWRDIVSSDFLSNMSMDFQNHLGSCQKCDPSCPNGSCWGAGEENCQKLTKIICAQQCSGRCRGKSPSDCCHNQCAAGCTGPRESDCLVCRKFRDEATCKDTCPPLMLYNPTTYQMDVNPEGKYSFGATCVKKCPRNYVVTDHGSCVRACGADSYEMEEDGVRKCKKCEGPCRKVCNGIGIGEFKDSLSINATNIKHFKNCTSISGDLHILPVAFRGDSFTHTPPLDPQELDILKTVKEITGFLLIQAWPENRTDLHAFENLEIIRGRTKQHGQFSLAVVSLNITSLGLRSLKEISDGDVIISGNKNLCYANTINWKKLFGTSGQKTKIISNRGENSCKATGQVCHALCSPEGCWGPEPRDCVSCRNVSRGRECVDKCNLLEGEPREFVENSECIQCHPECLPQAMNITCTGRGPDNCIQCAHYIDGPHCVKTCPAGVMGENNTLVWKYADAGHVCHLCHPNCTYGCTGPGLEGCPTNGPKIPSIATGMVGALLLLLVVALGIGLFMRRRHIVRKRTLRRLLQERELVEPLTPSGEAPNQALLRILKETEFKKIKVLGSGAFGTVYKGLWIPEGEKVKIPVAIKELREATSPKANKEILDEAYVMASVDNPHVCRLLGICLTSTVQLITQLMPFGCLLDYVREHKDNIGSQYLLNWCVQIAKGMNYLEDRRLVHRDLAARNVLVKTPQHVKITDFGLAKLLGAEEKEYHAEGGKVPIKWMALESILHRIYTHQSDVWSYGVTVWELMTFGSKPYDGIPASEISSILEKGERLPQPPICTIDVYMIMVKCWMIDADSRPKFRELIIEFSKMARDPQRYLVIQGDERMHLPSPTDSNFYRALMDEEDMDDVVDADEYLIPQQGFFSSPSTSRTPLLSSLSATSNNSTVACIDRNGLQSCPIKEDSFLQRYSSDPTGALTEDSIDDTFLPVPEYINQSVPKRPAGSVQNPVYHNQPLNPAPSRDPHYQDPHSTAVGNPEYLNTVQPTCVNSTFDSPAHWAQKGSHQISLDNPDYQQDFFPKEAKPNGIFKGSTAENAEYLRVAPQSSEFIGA
Outline: as §2

[1] = ATP 4 μM, read-out: Kinase IC50 (nM) in vitro ErbB2
[2] = ATP 1.65 μM, read-out: Kinase IC50 (nM) in vitro EGFR

| Structure (SMILES) | IC50 (BT-474) [nM] | IC50 (ErbB2 kinase; [1]) [nM] | IC50 (EGFR kinase; [2]) [nM] | IC50 (N87) [nM] | IC50 (ErbB2 kinase) [nM] | IC50 (EGFR kinase) [nM] |
| --- | --- | --- | --- | --- | --- | --- |
| C=CC(=O)Nc1ccc(-c2ccc3ncnc(Nc4ccc(Oc5cc6nncn6cn5)c(C)c4)c3c2)cn1 [Embodiment 54, N-(5-(4-((4-([1,2,4]triazolo[4,3-c]pyrimidin-7-yloxy)-3-methylphenyl)amino)quinazolin-6-yl)pyridin-2-yl)acrylamide] | 32.8 | 6.4 | 370 | 150 |  |  |
| C=CC(=O)Nc1cc(-c2ccc3ncnc(Nc4ccc(Oc5cc6nncn6cn5)c(C)c4)c3c2)ccn1 [Embodiment 55, N-(4-(4-((4-([1,2,4]triazolo[4,3-c]pyrimidin-7-yloxy)-3-methylphenyl)amino)quinazolin-6-yl)pyridin-2-yl)acrylamide] | 28.4 | 1 | 15.9 | 122 |  |  |
| C=CC(=O)Nc1ccc(-c2ccc3ncnc(Nc4ccc(Oc5cc6nncn6cn5)c(C)c4)c3c2)c(C)n1 [Embodiment 56, N-(5-(4-((4-([1,2,4]triazolo[4,3-c]pyrimidin-7-yloxy)-3-methylphenyl)amino)quinazolin-6-yl)-6-methylpyridin-2-yl)acrylamide] | 35.4 | 34 | 2450 | 466 |  |  |
| Cc1cc(Nc2ncnc3ccc(NC(=O)/C=C/CN(C)C)cc23)ccc1Oc1cc2nncn2cn1 [Embodiment 57, (E)-N-(4-((4-([1,2,4]triazolo[4,3-c]pyrimidin-7-yloxy)-3-methylphenyl)amino)quinazolin-6-yl)-4-(dimethylamino)-2-butenamide] | 5.6 | 1.7 | 2.7 | 12.8 |  |  |
| Cc1cc(Nc2ncnc3ccc(NC(=O)C4CC(Br)=NO4)cc23)ccc1Oc1cc2nncn2cn1 (stereo not drawn) [Embodiment 58, N-(4-((4-([1,2,4]triazolo[4,3-c]pyrimidin-7-yloxy)-3-methylphenyl)amino)quinazolin-6-yl)-3-bromo-4,5-dihydroisoxazol-5-carboxamide] | 352 | 5.4 | 206 | 192 |  |  |
| Cc1cc(Nc2ncnc3ccc(-c4ccc(CN(C)C)o4)cc23)ccc1Oc1cc2nncn2cn1 [Embodiment 59, N-(4-([1,2,4]triazolo[4,3-c]pyrimidin-7-yloxy)-3-methylphenyl)-6-(5-((dimethylamino)methyl)furan-2-yl)-4-aminoquinazoline] | 281 | 5.7 | 40.2 | 61.1 |  |  |
| Cc1cc(Nc2ncnc3ccc(-c4ccc(CO)o4)cc23)ccc1Oc1cc2nncn2cn1 [Embodiment 60, (5-(4-((4-([1,2,4]triazolo[4,3-c]pyrimidin-7-yloxy)-3-methylphenyl)amino)quinazolin-6-yl)furan-2-yl)methanol] | 108 | 1.1 | 15.6 | 23.4 |  |  |
| Cc1cc(Nc2ncnc3ccc(-c4ccc(CN5CCN(C)CC5)o4)cc23)ccc1Oc1cc2nncn2cn1 [Embodiment 61] | 48.9 | 6 | 44.7 | 35.4 |  |  |
| Cc1cc(Nc2ncnc3ccc(-c4cc(CNCCS(C)(=O)=O)co4)cc23)ccc1Oc1cc2nncn2cn1 [Embodiment 62] | 30 | 1.5 | 14.2 | 72.4 |  |  |
| Cc1cc(Nc2ncnc3ccc(-c4ccc(CN5CCS(=O)(=O)CC5)o4)cc23)ccc1Oc1cc2nncn2cn1 [Embodiment 63] | 12.7 | 1.8 | 29.5 | 13 |  |  |
| Cc1cc(Nc2ncnc3ccc(-c4cc(CN5CCS(=O)(=O)CC5)co4)cc23)ccc1Oc1cc2nncn2cn1 [Embodiment 64] | 27.6 | 1.6 | 29 | 42.7 |  |  |
| Cc1cc(Nc2ncnc3ccc(-c4ccc(CNCCS(N)(=O)=O)o4)cc23)ccc1Oc1cc2nncn2cn1 [Embodiment 65] | 19.8 | 1 | 3.8 | 63.2 |  |  |
| Cc1cc(Nc2ncnc3ccc(NC(=O)Oc4ccccc4)cc23)ccc1Oc1cc2nncn2cn1 [Embodiment 66] | 275 |  |  | 487 | 12.9 | 567 |
| Cc1cc(NC(=O)Nc2ccc3ncnc(Nc4ccc(Oc5cc6nncn6cn5)c(C)c4)c3c2)no1 [Embodiment 67, 1-(4-((4-([1,2,4]triazolo[4,3-c]pyrimidin-7-yloxy)-3-methylphenyl)amino)quinazolin-6-yl)-3-(5-methylisoxazol-3-yl)urea] | 177 | 3.2 | 157 | 264 |  |  |
| Cc1cc(Nc2ncnc3ccc(-c4cccc(CNCCS(C)(=O)=O)c4)cc23)ccc1Oc1cc2nncn2cn1 [Embodiment 68] | 38.7 | 2.2 | 5.4 | 52 |  |  |
| Cc1cc(NC(=O)Nc2ccc3ncnc(Nc4ccc(Oc5cc6nncn6cn5)c(C)c4)c3c2)n[nH]1 [Embodiment 70, 1-(4-((4-([1,2,4]triazolo[4,3-c]pyrimidin-7-yloxy)-3-methylphenyl)amino)quinazolin-6-yl)-3-(5-methyl-1H-pyrazol-3-yl)urea] | 172 | 3.3 | 73.4 | 852 |  |  |

More lines, main results first:

| IC50 (BT-474) [nM] | IC50 (ErbB2 kinase; [1]) [nM] | IC50 (EGFR kinase; [2]) [nM] | Structure (SMILES) | IC50 (N87) [nM] | IC50 (ErbB2 kinase) [nM] | IC50 (EGFR kinase) [nM] |
| --- | --- | --- | --- | --- | --- | --- |
| 42.7 | 3.5 | 20.7 | C=C(F)C(=O)Nc1cccc(-c2ccc3ncnc(Nc4ccc(Oc5cc6nncn6cn5)c(C)c4)c3c2)c1 [Embodiment 71, N-(3-(4-((4-([1,2,4]triazolo[4,3-c]pyrimidin-7-yloxy)-3-methylphenyl)amino)quinazolin-6-yl)phenyl)-2-fluoroacrylamide] | 66.4 |  |  |
| 30 | 0.9 | 4.3 | Cc1cc(Nc2ncnc3ccc(NC4=NC5(CC5)CO4)cc23)ccc1Oc1cc2nncn2cn1 [Embodiment 72, N′-(4-([1,2,4]triazolo[4,3-c]pyrimidin-7-yloxy)-3-methylphenyl)-N^6-(6-oxa-4-azaspiro[2.4]hept-4-en-5-yl)quinazolin-4,6-diamine] | 34.2 |  |  |
| 139 | 4.21 | 34.9 | Cc1cc(Nc2ncnc3ccc(NC(=O)Nc4cc(C)n(C)n4)cc23)ccc1Oc1cc2nncn2cn1 [Embodiment 73, 1-(4-((4-([1,2,4]triazolo[4,3-c]pyrimidin-7-yloxy)-3-methylphenyl)amino)quinazolin-6-yl)-3-(1,5-dimethyl-1H-pyrazol-3-yl)urea] | 162 |  |  |
| 85.8 | 2.4 | 43.3 | Cc1coc(NC(=O)Nc2ccc3ncnc(Nc4ccc(Oc5cc6nncn6cn5)c(C)c4)c3c2)n1 [Embodiment 74, 1-(4-((4-([1,2,4]triazolo[4,3-c]pyrimidin-7-yloxy)-3-methylphenyl)amino)quinazolin-6-yl)-3-(4-methyloxazol-2-yl)urea] | 106 |  |  |
| 9 | 1.34 | 19.2 | C=CC(=O)Nc1cccc(-c2ccc3ncnc(Nc4ccc(Oc5cc6nncn6cn5)c(C)c4)c3c2)c1 [Embodiment 75, N-(3-(4-((4-([1,2,4]triazolo[4,3-c]pyrimidin-7-yloxy)-3-methylphenyl)amino)quinazolin-6-yl)phenyl)acrylamide] | 15 |  |  |
| 27.9 | 4.9 | 82.2 | Cc1cc(Nc2ncnc3ccc(-c4cccc(NC(=O)/C=C/CN(C)C)c4)cc23)ccc1Oc1cc2nncn2cn1 [Embodiment 76, (E)-N-(3-(4-((4-([1,2,4]triazolo[4,3-c]pyrimidin-7-yloxy)-3-methylphenyl)amino)quinazolin-6-yl)phenyl)-4-(dimethylamino)but-2-enamide] | 42.8 |  |  |
| 254 | 5.03 | 23.6 | Cc1cc(Nc2ncnc3ccc(-c4cccc(F)c4)cc23)ccc1Oc1cc2nncn2cn1 [Embodiment 77, N-(4-([1,2,4]triazolo[4,3-c]pyrimidin-7-yloxy)-3-methylphenyl)-6-(3-fluorophenyl)-4-aminoquinazoline] | 509 |  |  |
| 13.2 | 1.8 | 3.3 | CC1(C)COC(Nc2ccc3ncnc(Nc4ccc(Oc5cc6nncn6cn5)c(Cl)c4)c3c2)=N1 [Embodiment 78, N′-[3-chloro-4-([1,2,4]triazolo[4,3-c]pyrimidin-7-yloxy)phenyl)-N^6-(4,4-dimethyl-4,5-dihydrooxazol-2-yl)quinazolin-4,6-diamine] | 22.3 |  |  |
| 24.7 | 1.7 | 7.7 | Cc1cc(Nc2ncnc3ccc(-c4ccc(CNCCS(C)(=O)=O)s4)cc23)ccc1Oc1cc2nncn2cn1 [Embodiment 79] | 37.2 |  |  |
| 120 | 1 | 12.6 | Cc1cc(Nc2ncnc3ccc(-c4cc[nH]c4)cc23)ccc1Oc1cc2nncn2cn1 [Embodiment 80, N-(4-([1,2,4]triazolo[4,3-c]pyrimidin-7-yloxy)-3-methylphenyl)-6-(1H-pyrrol-3-yl)quinazolin-4-amine] | 36 |  |  |
| 1270 | 16.6 | 51.9 | CC1(C)COC(Nc2ccc3ncnc(Nc4ccc(Oc5cc6nncn6cn5)c(C(F)(F)F)c4)c3c2)=N1 [Embodiment 81, N^4-(3-trifluoromethyl-4-([1,2,4]triazolo[4,3-c]pyrimidin-7-yloxy)phenyl)-N^6-(4,4-dimethyl-4,5-dihydrooxazol-2-yl)quinazolin-4,6-diamine] | 749 |  |  |
